Reference: patent US20240025918A1, “KRAS G12D Inhibitors” (Jacobio Pharmaceuticals Co., Ltd, priority 2020, published 2024)

Tests used:
AsPC-1 = test: Cell growth inhibition assay, AsPC-1 (CellTiter-Glo); format: cell-based; details: Homo sapiens, ASPC1, 144 h; AsPC-1 cell viability, 6 days incubation
Procedure: AsPC-1 cultured in RPMI-1640 medium (Gibco) containing 10% fetal bovine serum (Gibco). Cells in culture medium were plated in 96-well plates at a concentration of 1000 cells/well (100 μL/well) and allowed to attach overnight.
(§1) The next day, compounds were diluted in culture medium and added to the plates. After 6 days incubation in a 37° C./5% CO2 cell incubator, the cell viability was detected by CellTiter-Glo® Luminescent Cell Viability Assay kit (Promega). Luminescent signals were read on Tecan Spark multimode microplate reader and analyzed using a 4-parameter logistic model to calculate IC50 values.

[1] = target: T1, GppNp-loaded HIS-KRAS(G12D, aa 1-169) and cRAF RBD (Homo sapiens, UniProt P01116, G12D); test: GTP-KRAS and cRAF interaction assay (HTRF); format: biochemical; details: 2 hours at 25° C.
T1 construct: GppNp-loaded HIS-KRAS(G12D, aa 1-169)
T1 sequence (P01116 1-169 isoform P01116-2 G12D): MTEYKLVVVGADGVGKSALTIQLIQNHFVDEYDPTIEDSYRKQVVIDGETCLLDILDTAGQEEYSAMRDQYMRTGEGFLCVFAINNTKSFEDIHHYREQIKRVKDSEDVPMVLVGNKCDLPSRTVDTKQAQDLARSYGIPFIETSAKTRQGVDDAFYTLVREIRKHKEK
Procedure: GppNp-loaded HIS-KRAS(G12D, aa 1-169) was pre-incubated with a compound in the presence of 200 μM GTP in a 384-well plate (Greiner) for 15 min, then cRAF RBD(GST tag, aa 50-132, CreativeBioMart), MAb Anti GST-d2 (Cisbio) and MAb Anti 6HIS-Tb cryptate Gold (Cisbio) were added to the assay wells (Final concentration: 2.0 nM GppNp-loaded HIS-KRAS(G12D), 100 μM GTP, 35 nM cRAF RBD, 1 μg/mL MAb Anti GST-d2, 52.5 ng/mL MAb Anti 6HIS-Tb cryptate Gold) and incubated for 2 hours at 25° C. Wells containing same percent of DMSO served as vehicle control, and wells without KRAS served as low control. HTRF signals were read on Tecan Spark multimode microplate reader and HTRF ratios were calculated under manufacturer's instructions. The percent of activation of compounds treated wells were normalized between vehicle control and low control (% Activation=(HTRF ratioCompound treated−HTRF ratioLow control)/(HTRF ratioVehicle control−HTRF ratioLow control)*100%). Then the data were analyzed by fitting a 4-parameter logistic model or calculating in Excel to calculate IC50 values.

AGS = test: Cell growth inhibition assay, AGS (CellTiter-Glo); format: cell-based; details: Homo sapiens, 144 h; AGS cell viability, 6 days incubation
Procedure: AGS cultured in F12K medium (Gibco) containing 10% fetal bovine serum (Gibco). Cells in culture medium were plated in 96-well plates at a concentration of 500 cells/well (100 μL/well) and allowed to attach overnight.
as §1

[2] = target: T2, GDP-loaded HIS-KRAS(G12D, aa 1-169) (Homo sapiens, UniProt P01116, G12D); test: SOS1 catalyzed nucleotide exchange assay (TR-FRET); format: biochemical; details: 4 hours at 25° C.
T2 construct: GDP-loaded HIS-KRAS(G12D, aa 1-169)
T2 sequence (P01116 1-169 isoform P01116-2 G12D): as above
Procedure: GDP-loaded HIS-KRAS(G12D, aa 1-169) was pre-incubated with a compound in the presence of 10 nM GDPin a 384-well plate (Greiner) for 15 min, then purified SOS1 ExD(Flag tag, aa 564-1049), BODIPY™ FL GTP (Invitrogen) and MAb (monoclonal antibody) Anti 6HIS-Tb cryptate Gold (Cisbio) were added to the assay wells (Final concentration: 1.5 nM GDP-loaded HIS-KRAS(G12D), 5 nM GDP, 0.5 μM SOS1 ExD, 80 nM BODIPY™ FL GTP, 52.5 ng/mL MAb Anti 6HIS-Tb cryptate Gold) and incubated for 4 hours at 25° C. Wells containing same percent of DMSO served as vehicle control, and wells without KRAS served as low control. TR-FRET signals were read on Tecan Spark multimode microplate reader. The parameters were F486: Excitation 340 nm, Emission 486 nm, Lag time 100 μs, Integration time 200 μs; F515: Excitation 340 nm, Emission 515 nm, Lag time 100 μs, Integration time 200 μs. TR-FRET ratios for each individual wells were calculated by equation: TR-FRET ratio=(Signal F515/Signal F486)*10000. The percent of activation of compounds treated wells were normalized between vehicle control and low control (% Activation=(TR-FRET ratioCompound treated−TR-FRET ratioLow control)/(TR-FRET ratioVehicle control−TR-FRET ratioLow control)*100%). Then the data were analyzed by fitting a 4-parameter logistic model or calculating in Excel to calculate IC50 values.

[3] = tested on: AGS cells expressing KRAS G12D; test: Phospho-ERK1/2(THR202/TYR204) HTRF assay; format: cell-based; details: Homo sapiens; Phospho-ERK1/2 in AGS cells, 2 hours incubation
Procedure: AGS cells expressing KRAS G12D were cultured in F12K medium (Gibco) containing 10% fetal bovine serum (Gibco). The AGS cells in culture medium were seeded in 96-well plates at a concentration of 40,000 cells/well and then put in a 37° C./5% CO2 cell incubator to incubate overnight. The next day, culture medium was removed and the compound diluted in assay medium (F12K, 0.1% FBS) was added in each well. After 2 hours incubation in a 37° C./5% CO2 cell incubator, the assay medium in 96-well plates was removed, then 50 μL of 1× blocking reagent-supplemented lysis buffer (Cisbio) was added and the plates were incubated at 25° C. for 45 min with shaking. 10 μL of cell lysates from the 96-well plates were transferred to a 384-well plate (Greiner) containing 2.5 μL/well HTRF® pre-mixed antibodies (Cisbio 64AERPEH). Incubate 4 hours at 25° C. and then read HTRF signals on Tecan Spark multimode microplate reader. The data were analyzed using a 4-parameter logistic model to calculate IC50 values.

SMILES | IC50 (AsPC-1) [µM] | IC50 [1] [µM] | IC50 (AGS) [µM] | IC50 [2] [µM] | IC50 [3] [µM]
C#Cc1c(F)ccc2cc(O)cc(-c3ccc4c(N5CC6CCC(C5)N6)nc(OCC5(CN6C7CCC6COC7)CC5)nc4c3F)c12 [Compound 7] | 0.0722 | 0.0272 | 0.00566 | 0.00627 | 0.00353
C#Cc1cccc2cc(O)cc(-c3ccc4c(N5CC6CCC(C5)N6)nc(OCC5(CN6CC7CCC(C6)O7)CC5)nc4c3F)c12 [Compound 8] | 0.0553 | 0.307 | 0.0316 | 0.0168 | 0.0212
C#Cc1cccc2cc(O)cc(-c3ccc4c(N5CC6CCC(C5)N6)nc(OCC5(CN6CC7CC6CO7)CC5)nc4c3F)c12 (stereo not drawn) [Compound 9] | 0.138 | 0.062 | 0.0105 | 0.00777 | 0.00259
C#Cc1cccc2cc(O)cc(-c3ccc4c(N5CC6CCC(C5)N6)nc(OCC5(CN6C7CCC6COC7)CC5)nc4c3F)c12 [Compound 10] | 0.0576 | 0.0773 | 0.0111 | 0.0121 | 0.00618
C#Cc1cccc2cc(O)cc(-c3c(F)cc4c(N5CC6CCC(C5)N6)nc(OCC5(CN6CCC7(CCO7)CC6)CC5)nc4c3F)c12 [Compound 11] | 0.214 | 0.0866 | 0.0157 | 0.0316 | 0.00949
C#Cc1cccc2cc(O)cc(-c3c(F)cc4c(N5CC6CCC(C5)N6)nc(OCC5(CN6CCC7(CC6)COC7)CC5)nc4c3F)c12 [Compound 12] | 0.0832 | 0.0808 | 0.00369 | 0.0142 | 0.00194
C#Cc1cccc2cc(O)cc(-c3c(F)cc4c(N5CC6CCC(C5)N6)nc(OCC5(CN6CCC7(C6)CC7(F)F)CC5)nc4c3F)c12 (stereo not drawn) [Compound 14] | 0.0265 | 0.0792 | 0.0107 | 0.00436 | 0.182
C#Cc1cccc2cc(O)cc(-c3c(F)cc4c(N5CC6CCC(C5)N6)nc(OCC5(CN6CCc7cccnc7C6)CC5)nc4c3F)c12 [Compound 15] | 0.0973 | 0.157 | 0.0139 | 0.00606 | 0.0689
C#Cc1cccc2cc(O)cc(-c3c(F)cc4c(N5CC6CCC(C5)N6)nc(OCC5(CN6Cc7cccnc7C6)CC5)nc4c3F)c12 [Compound 17] | 0.158 | 0.273 | 0.0118 | 0.00199 | 0.0563
C#Cc1cccc2cc(O)cc(-c3c(F)cc4c(N5CC6CCC(C5)N6)nc(OCC5(CN6CC7(COC7)C6)CC5)nc4c3F)c12 [Compound 19] | 0.71 | 0.0669 | 0.0129 | 0.00227 | 0.0198
C#Cc1cccc2cc(O)cc(-c3c(F)cc4c(N5CC6CCC(C5)N6)nc(OCC5(CN6CC7(CCC7)C6)CC5)nc4c3F)c12 [Compound 20] | 0.264 | 0.0581 | 0.0233 | 0.00133 | 0.0392
C#Cc1cccc2cc(O)cc(-c3c(F)cc4c(N5CC6CCC(C5)N6)nc(OCC5(CN6CC(OC)C6)CC5)nc4c3F)c12 [Compound 21] | 0.334 | 0.0745 | 0.0163 | 0.00194 | 0.0135
C#Cc1cccc2cc(O)cc(-c3c(F)cc4c(N5CC6CCC(C5)N6)nc(OCC5(CN6CC7(CCOCC7)C6)CC5)nc4c3F)c12 [Compound 22] | 0.413 | 0.0402 | 0.0197 | 0.00139 | 0.00695
C#Cc1cccc2cc(O)cc(-c3c(F)cc4c(N5CC6CCC(C5)N6)nc(OCC5(CN6CC7COCC7C6)CC5)nc4c3F)c12 (stereo not drawn) [Compound 24] | 0.036 | 0.0252 | 0.00366 | 0.00126 | 0.00248
C#Cc1cccc2cc(O)cc(-c3c(F)cc4c(N5CC6CCC(C5)N6)nc(OCC5(CN6CC7CCCC7C6)CC5)nc4c3F)c12 (stereo not drawn) [Compound 25] | 0.0966 | 0.051 | 0.0132 | 0.00148 | 0.0147
C#Cc1cccc2cc(O)cc(-c3c(F)cc4c(N5CC6CCC(C5)N6)nc(OCC5(CN6CC(C)(OC)C6)CC5)nc4c3F)c12 [Compound 27] | 0.533 | 0.19 | 0.0293 | 0.00961 | 0.0193
C#Cc1cccc2cc(O)cc(-c3c(F)cc4c(N5CC6CCC(C5)N6)nc(OCC5(CN6CCC7(CC6)CC7)CC5)nc4c3F)c12 [Compound 28] | 0.0986 | 0.0525 | 0.00837 | 0.00176 | 0.0262
C#Cc1cccc2cc(O)cc(-c3ccc4c(N5CC6CCC(C5)N6)nc(OCC5(CN6CCC7(CC6)CC7)CC5)nc4c3F)c12 [Compound 30] | 0.0817 | 0.133 | 0.00977 | 0.0286 | 0.0315
C#Cc1cccc2cc(O)cc(-c3ccc4c(N5CC6CCC(C5)N6)nc(OCC5(CN6CC(OC)C6)CC5)nc4c3F)c12 [Compound 31] | 0.215 | 0.108 | 0.0262 | 0.0232 | 0.0134
C#Cc1cccc2cc(O)cc(-c3ccc4c(N5CC6CCC(C5)N6)nc(OCC5(CN6CC7CCCC7C6)CC5)nc4c3F)c12 (stereo not drawn) [Compound 32] | 0.0671 | 0.0931 | 0.00882 | 0.0355 | 0.0348
C#Cc1cccc2cc(O)cc(-c3ccc4c(N5CC6CCC(C5)N6)nc(OCC5(CN6CC(C)(OC)C6)CC5)nc4c3F)c12 [Compound 33] | 0.151 | 0.126 | 0.0153 | 0.0316 | 0.0128
C#Cc1cccc2cc(O)cc(-c3c(F)cc4c(N5CC6CCC(C5)N6)nc(OCC5(CN6CCC7(CCCCO7)C6)CC5)nc4c3F)c12 (stereo not drawn) [Compound 34] | 0.208 | 0.0826 | 0.0169 | 0.00307 | 0.0389
C#Cc1cccc2cc(O)cc(-c3c(F)cc4c(N5CC6CCC(C5)N6)nc(OCC5(CN6CCOCC67CCC7)CC5)nc4c3F)c12 [Compound 35] | 0.0596 | 0.157 | 0.00843 | 0.00217 | 0.0202
C#Cc1cccc2cc(O)cc(-c3c(F)cc4c(N5CC6CCC(C5)N6)nc(OCC5(CN6C[C@H]7C[C@@H]6CO7)CC5)nc4c3F)c12 [Compound 36] | 0.0774 | 0.0351 | 0.00871 | 0.0021 | 0.00307
